The results in this text go back to publication PMC6260619, “Selective Cytotoxicity of Goniothalamin against Hepatoblastoma HepG2 Cells” (Molecules, 2011).

The test system of experiment [1] is Chang cells. As to the kind of experiment: Cell cycle PI analysis by flow cytometry, Chang. It counts as cell-based, human. The procedure: The effect of goniothalamin on the cell cycle distribution of non-malignant Chang cells was also assessed. […] Accordingly, goniothalamin induced a marked apoptosis in a time-dependent manner at IC50 concentrations. As expected, the increase in the apoptotic population was associated with a concomitant enlargement of the pre-phase population, as observed in cell cycle analysis.
The treated cells were trypsinized and washed with PBS. After centrifugation, the supernatant was removed. Then, 1 × 10^6 cells were harvested and fixed in ice-cold ethanol (70%). The fixed cells were centrifuged at high speed (180 × g) for 10 minutes to adequately pellet down the cells that were suspended in the ethanol. The pellet was washed by the ice-cold PBS and then centrifuged again at 180 × g for 10 minutes. The final pellet was resuspended with 1 mL of RNase and incubated at 37 °C for 30 minutes. At the end of incubation, DNA binding dye PI (1 mg/mL) was added to give a final concentration of 50 µg/mL. The mixture was incubated at room temperature for 10 min in the dark. Data acquisition and analysis were performed in by flow cytometry FACS Calibur flow cytometer (Becton Dickinson, Franklin Lakes, NJ, USA) using CellQuest 3.3 software.
A general note: A flow cytometer gives signals particle by particle.

The subject of experiment [2] is Chang cells. As to the kind of experiment: BrdU cell proliferation ELISA, Chang. It counts as cell-based, human. The method, then: The inhibition of goniothalamin on cellular DNA synthesis in Chang cells was also measured by BrdU incorporation.
To confirm anti-proliferative effects in goniothalamin-treated cells, BrdU cell proliferation kit was used. HepG2 and Chang cells were seeded at 1.5 × 10^5 cells/mL in a final volume of 100 μL in a 96-well culture dish and incubated overnight to allow the cells to adhere to the dish. Each sample was assayed in triplicate. Besides, the control samples include a blank (no cells) and background (cells without BrdU) was also prepared. […] Then, BrdU label (20 μL, diluted by 1/2,000 in media) was added to each well and incubated for 24 h at 37 °C. The media was discarded and replaced by fix/denaturing solution (200 μL). The plate was incubated for 30 min at room temperature. The fix/denaturing solution was removed by inverting the plate. Then, BrdU antibody (100 μL, diluted by 1/100 in dilution buffer) was added to each well and left for 1 hour at room temperature. The cells were washed 3 times with wash buffer. After that, secondary antibody (100 μL, anti-mouse IgG HRP conjugated) was added to each well for 30 min. The washing step was done three times with wash buffer and once with distilled water. The distilled water was removed and substrate solution (100 μL) was added to each well. The plate was left for 15 min at room temperature in the dark condition. Finally, stop solution (100 μL) was added to the wells and absorbance measured at 450–540 nm.

[3] abbreviates: 24h, at IC50 (goniothalamin 79.10 µM; doxorubicin 0.83 µM).
The mark [4] stands for this setting: 48h, at IC50 (goniothalamin 63.75 µM; doxorubicin 0.41 µM).
Setting [5] is: 72h, at IC50 (goniothalamin 35.01 µM; doxorubicin 0.28 µM).

Turning to `O=C1C=CC[C@H](/C=C/c2ccccc2)O1` [Goniothalamin, 5-hydroxy-7-phenylhepta-2,6-dienoic acid lactone], in experiment [1] (setting [3]), the G0/G1 is on record as 55.08 ± 3.60%, the “G2+M” value came to 14.89 ± 5.53%, the S was 12.65 ± 2.79% and the SubG0/G1 stood at 17.38 ± 7.29%. In experiment [1] (setting [4]), the G0/G1 amounted to 58.68 ± 9.45%, the “G2+M” value is 2.5 ± 5.89%, the S was found to be 5.82 ± 0.16% and the SubG0/G1 was 33.00 ± 3.40%. In experiment [1] (setting [5]), the G0/G1 amounted to 11.60 ± 0.07%, the “G2+M” value came to 2.5 ± 0.44%, the S is given as 4.91 ± 0.13% and the SubG0/G1 was 80.99 ± 0.64%. Moreover, in experiment [2] (IC50, 24 hours), the “percentage of cells incorporating BrdU in comparison with untreated cells” value turned out to be 62.4%. Moreover, the “percentage of cells incorporating BrdU in comparison with untreated cells” value in experiment [2] (IC50, 72 hours) was determined as 23.5%. Further, the “decrease in cell proliferation compared to untreated cells (BrdU)” value in experiment [2] (lowest concentration (2.3 µM), 72 hours) is 2%. Moreover, the “cell proliferation retained (BrdU)” value in experiment [2] (lowest concentration (2.3 µL as printed), 72 hours) was 97.6%.
